Some results are limits rather than exact numbers.

The text below walks through data of patent US12552772B2, “2-pyrazole anilines and related analogs for inhibiting YAP/TAZ-TEAD” (KATHOLIEKE UNIVERSITEIT LEUVEN, priority 2021, dated 2026).

In the experiment the test system is YAP/TAZ-TEAD transcription. The experiment is described as follows: Reporter gene assay for measuring the inhibition of YAP/TAZ-TEAD transcription (TEAD-responsive element luciferase reporter in Hek293T cells). It counts as cell-based. The conditions noted are these: Homo sapiens, HEK-293T, 24 hours incubation. The procedure: Hek293T cells are cultured in DMEM supplemented with 10% fetal bovine serum, Sodium pyruvate, Sodium bicarbonate, L-glutamine. The cells are harvested and transiently transfected with TEAD-responsive element luciferase reporter. Transfected cells are plated in 384-wells plate containing pre-diluted compounds. After 24 hours incubation at 37° C./5% CO2, assay plates were cooled down to RT and levelled to an equal volume per well, prior to the addition of 25 uL luciferase substrate SteadyLite (Perkin Elmer)/well. The plate was shaken for 10 min at 600 rpm, centrifuged for 1 min at 500 rpm and measured with an Envision reader (PerkinElmer). The amount of relative light units produced by the TEAD reporter is used to calculated percent of inhibition.
The percent of reporter inhibition was calculated in the presence of a positive control inhibitor (100% inhibition) versus a condition with the presence of the vehicle basal activity of the reporter (0% inhibition). The ability of a test compound to inhibit this activity was determined as: Percentage inhibition=[1−((RLU determined in the presence of vehicle−RLU determined for sample with test compound present) divided by (RLU determined in the presence of vehicle−RLU determined for sample with positive control inhibitor))]*100
The activities of the example compounds tested are depicted in the table below. The activity ranges A, B and C refer to EC50 values in the reporter gene assay as described as follows: “A”: EC50<1 μM; “B”: 1 μM s EC50≤20 μM and “C”: EC50>20 μM, NT=not tested.

As a reminder, the EC50 is the concentration that produces a half-maximal response. Low values mean higher potency in that assay, high ones lower potency in that assay. `Cn1ccc(-c2cc(-c3ccccc3)ccc2NCCC(=O)O)n1` [compound 063, 3-((3-(1-methyl-1H-pyrazol-3-yl)-[1,1′-biphenyl]-4-yl)amino)propanoic acid] registered an EC50 of less than 1000 nM.

Turning to `CNC(=O)CCNc1ccc(-c2ccccc2)cc1-c1ccn(C)n1` [compound 064, N-methyl-3-((3-(1-methyl-1H-pyrazol-3-yl)-[1,1′-biphenyl]-4-yl)amino)propanamide], the EC50 was less than 1000 nM.

Turning to `CSCCNc1ccc(-c2ccccc2)cc1-c1ccn(Cc2cccnc2)n1` [compound 065, N-(2-(methylthio)ethyl)-3-(1-(pyridin-3-ylmethyl)-1H-pyrazol-3-yl)-[1,1′-biphenyl]-4-amine], the EC50 lay in the range of 1000 to 20000 nM.

Compound `CS(=N)(=O)CCNc1ccc(-c2ccccc2)cc1-c1ccn(Cc2cccnc2)n1` (centres unmarked) [compound 066, imino(methyl)(2-((3-(1-(pyridin-3-ylmethyl)-1H-pyrazol-3-yl)-[1,1′-biphenyl]-4-yl)amino)ethyl)-λ^6-sulfanone] returned an EC50 of less than 1000 nM.

As for `CNS(=O)(=O)CCN(C)c1ccc(-c2ccccc2)cc1-c1ccn(Cc2cccnc2)n1` [compound 067, N-methyl-2-(methyl(3-(1-(pyridin-3-ylmethyl)-1H-pyrazol-3-yl)-[1,1′-biphenyl]-4-yl)amino)ethane-1-sulfonamide], the 50% effective concentration (EC50) is 1000 to 20000 nM.

For the compound `O=S1(=O)CCC(Nc2ccc(-c3ccccc3)cc2-c2ccn(Cc3cccnc3)n2)CC1` [compound 068, 4-((3-(1-(pyridin-3-ylmethyl)-1H-pyrazol-3-yl)-[1,1′-biphenyl]-4-yl)amino)tetrahydro-2H-thiopyran-1,1-dioxide], the EC50 fell in the range of 1000 to 20000 nM.

`O=S1(=O)CCC(Nc2cc(-c3ccccc3)cc(-c3ccn(Cc4cccnc4)n3)c2)CC1` [compound 069, 4-((5-(1-(pyridin-3-ylmethyl)-1H-pyrazol-3-yl)-[1,1′-biphenyl]-3-yl)amino)tetrahydro-2H-thiopyran 1,1-dioxide] came in with an EC50 of 1000 to 20000 nM.

`c1ccc(-c2ccc(NC3CCCOC3)c(-c3ccn(Cc4cccnc4)n3)c2)cc1` (centres unmarked) [compound 070, N-(3-(1-(pyridin-3-ylmethyl)-1H-pyrazol-3-yl)-[1,1′-biphenyl]-4-yl)tetrahydro-2H-pyran-3-amine] displayed an EC50 of less than 1000 nM.

As to `c1ccc(-c2cc(NC3CCCOC3)cc(-c3ccn(Cc4cccnc4)n3)c2)cc1` (centres unmarked) [compound 071, N-(5-(1-(pyridin-3-ylmethyl)-1H-pyrazol-3-yl)-[1,1′-biphenyl]-3-yl)tetrahydro-2H-pyran-3-amine], the half-maximal effective concentration (EC50) fell in the range of 1000 to 20000 nM.

`O=C1CC(Nc2ccc(-c3ccccc3)cc2-c2ccn(Cc3cccnc3)n2)CCN1` (centres unmarked) [compound 072, 4-((3-(1-(pyridin-3-ylmethyl)-1H-pyrazol-3-yl)-[1,1′-biphenyl]-4-yl)amino)piperidin-2-one] displayed an EC50 of 1000 to 20000 nM.

Take `O=C1CC(Nc2cc(-c3ccccc3)cc(-c3ccn(Cc4cccnc4)n3)c2)CCN1` (centres unmarked) [compound 073, 4-((5-(1-(pyridin-3-ylmethyl)-1H-pyrazol-3-yl)-[1,1′-biphenyl]-3-yl)amino)piperidin-2-one]: the EC50 fell in the range of 1000 to 20000 nM.

As to `CNC(=O)CNc1ccc(-c2ccccc2)cc1-c1ccn(Cc2cccnc2)n1` [compound 074, N-methyl-2-((3-(1-(pyridin-3-ylmethyl)-1H-pyrazol-3-yl)-[1,1′-biphenyl]-4-yl)amino)acetamide], the half-maximal effective concentration (EC50) is 1000 to 20000 nM.

`CNC(=O)CNc1cc(-c2ccccc2)cc(-c2ccn(Cc3cccnc3)n2)c1` [compound 076, N-methyl-2-((5-(1-(pyridin-3-ylmethyl)-1H-pyrazol-3-yl)-[1,1′-biphenyl]-3-yl)amino)acetamide] yielded an EC50 of 1000 to 20000 nM.

As for `CCC(=O)NCCNc1ccc(-c2ccccc2)cc1-c1ccn(Cc2cccnc2)n1` [compound 077], the EC50 is less than 1000 nM.

On to `O=C(O)CNc1cc(-c2ccccc2)cc(-c2ccn(Cc3cccnc3)n2)c1` [compound 078, (5-(1-(pyridin-3-ylmethyl)-1H-pyrazol-3-yl)-[1,1′-biphenyl]-3-yl)glycine], for which the EC50 was more than 20000 nM.

For the compound `CNS(=O)(=O)CCC(=O)Nc1ccc(-c2ccccc2)cc1-c1ccn(Cc2cccnc2)n1` [compound 079, 3-(N-methylsulfamoyl)-N-(3-(1-(pyridin-3-ylmethyl)-1H-pyrazol-3-yl)-[1,1′-biphenyl]-4-yl)propanamide], the EC50 was 1000 to 20000 nM.

`C=CC(=O)Nc1ccc(-c2ccccc2)cc1-c1ccn(Cc2cccnc2)n1` [compound 080, N-(3-(1-(pyridin-3-ylmethyl)-1H-pyrazol-3-yl)-[1,1′-biphenyl]-4-yl)acrylamide] showed an EC50 of 1000 to 20000 nM.

`N#CCC(=O)Nc1ccc(-c2ccccc2)cc1-c1ccn(Cc2cccnc2)n1` [compound 081, 2-cyano-N-(3-(1-(pyridin-3-ylmethyl)-1H-pyrazol-3-yl)-[1,1′-biphenyl]-4-yl)acetamide] showed an EC50 of 1000 to 20000 nM.

Turning to `CNS(=O)(=O)CC(=O)Nc1ccc(-c2ccccc2)cc1-c1ccn(Cc2cccnc2)n1` [compound 082, 2-(N-methylsulfamoyl)-N-(3-(1-(pyridin-3-ylmethyl)-1H-pyrazol-3-yl)-[1,1′-biphenyl]-4-yl)acetamide], the EC50 fell in the range of 1000 to 20000 nM.

The compound `N#CCCNc1ccc(-c2ccccc2)cc1-c1ccn(Cc2cccnc2)n1` [compound 084, 3-((3-(1-(pyridin-3-ylmethyl)-1H-pyrazol-3-yl)-[1,1′-biphenyl]-4-yl)amino)propanenitrile] returned an EC50 of 1000 to 20000 nM.

In turn, `N#CCNc1ccc(-c2ccccc2)cc1-c1ccn(Cc2cccnc2)n1` [compound 085, 2-((3-(1-(pyridin-3-ylmethyl)-1H-pyrazol-3-yl)-[1,1′-biphenyl]-4-yl)amino)acetonitrile] had an EC50 of less than 1000 nM.

For `CNS(=O)(=O)CCNc1ccc(-c2cccc(C(F)(F)F)c2)cc1-c1ccn(Cc2cccnc2)n1` [compound 089], the EC50 was less than 1000 nM.

`CNS(=O)(=O)CCNc1ccc(-c2cccc(OC)c2)cc1-c1ccn(Cc2cccnc2)n1` [compound 090, 2-((3′-methoxy-3-(1-(pyridin-3-ylmethyl)-1H-pyrazol-3-yl)-[1,1′-biphenyl]-4-yl)amino)-N-methylethane-1-sulfonamide] showed an EC50 of less than 1000 nM.

As to `CNS(=O)(=O)CCNc1ccc(-c2cccc(Cl)c2)cc1-c1ccn(Cc2cccnc2)n1` [compound 091, 2-((3′-chloro-3-(1-(pyridin-3-ylmethyl)-1H-pyrazol-3-yl)-[1,1′-biphenyl]-4-yl)amino)-N-methylethane-1-sulfonamide], the EC50 was less than 1000 nM.

`CNS(=O)(=O)CCNc1ccc(-c2cc(F)ccc2F)cc1-c1ccn(Cc2cccnc2)n1` [compound 092, 2-((2′,5′-difluoro-3-(1-(pyridin-3-ylmethyl)-1H-pyrazol-3-yl)-[1,1′-biphenyl]-4-yl)amino)-N-methylethane-1-sulfonamide] had an EC50 of less than 1000 nM.

The compound `CNS(=O)(=O)CCNc1ccc(-c2cccnc2)cc1-c1ccn(Cc2cccnc2)n1` [compound 094, N-methyl-2-((4-(pyridin-3-yl)-2-(1-(pyridin-3-ylmethyl)-1H-pyrazol-3-yl)phenyl)amino)ethane-1-sulfonamide] came in with an EC50 of 1000 to 20000 nM.

In turn, `CNS(=O)(=O)CCNc1ccc(C2CCCCC2)cc1-c1ccn(Cc2cccnc2)n1` [compound 095, 2-((4-cyclohexyl-2-(1-(pyridin-3-ylmethyl)-1H-pyrazol-3-yl)phenyl)amino)-N-methylethane-1-sulfonamide] displayed a half-maximal effective concentration (EC50) of less than 1000 nM.

The compound `CNS(=O)(=O)CCNc1ccc(-c2ccn(C)n2)cc1-c1ccn(Cc2cccnc2)n1` [compound 096, N-methyl-2-((4-(1-methyl-1H-pyrazol-3-yl)-2-(1-(pyridin-3-ylmethyl)-1H-pyrazol-3-yl)phenyl)amino)ethane-1-sulfonamide] returned an EC50 of 1000 to 20000 nM.

With `CNS(=O)(=O)CCNc1ccc(-c2ccc(C(F)F)cc2)cc1-c1ccn(Cc2cccnc2)n1` [compound 097, 2-((4′-(difluoromethyl)-3-(1-(pyridin-3-ylmethyl)-1H-pyrazol-3-yl)-[1,1′-biphenyl]-4-yl)amino)-N-methylethane-1-sulfonamide], the EC50 was less than 1000 nM.

As for `CNS(=O)(=O)CCNc1ccc(-c2ccc(OC(F)(F)F)cc2)cc1-c1ccn(Cc2cccnc2)n1` [compound 098, N-methyl-2-((3-(1-(pyridin-3-ylmethyl)-1H-pyrazol-3-yl)-4′-(trifluoromethoxy)-[1,1′-biphenyl]-4-yl)amino)ethane-1-sulfonamide], the EC50 is less than 1000 nM.

In turn, `CNS(=O)(=O)CCNc1ccc(-c2ccc(OC(F)F)cc2)cc1-c1ccn(Cc2cccnc2)n1` [compound 099, 2-((4′-(difluoromethoxy)-3-(1-(pyridin-3-ylmethyl)-1H-pyrazol-3-yl)-[1,1′-biphenyl]-4-yl)amino)-N-methylethane-1-sulfonamide] gave an EC50 of less than 1000 nM.

`CNS(=O)(=O)CCNc1ccc(-c2ccc(S(F)(F)(F)(F)F)cc2)cc1-c1ccn(Cc2cccnc2)n1` [compound 100, 2-((4′-(2,2-difluoro-2-methyl-2l6-trifluoran-2-yl)-3-(1-(pyridin-3-ylmethyl)-1H-pyrazol-3-yl)-[1,1′-biphenyl]-4-yl)amino)-N-methylethane-1-sulfonamide] showed an EC50 of less than 1000 nM.
